We go through nine compounds from ChEMBL document CHEMBL1201862, “PubChem BioAssay data set” (2004).

Calls of active or inactive are those of the source. Some results are limits rather than exact numbers.

Data set [1] is described as follows: viability loss in THP-1 monocytes – THP-1 cells, cytotoxicity control for Vif-APOBEC3G degradation inhibitor project, dose response (AID 1117359). Type of data set: functional. Conditions: THP-1.
Data set [2] concerns the target T1, Heat shock factor protein 1 (Mus musculus, UniProt P38532).
T1 sequence (P38532 whole entry): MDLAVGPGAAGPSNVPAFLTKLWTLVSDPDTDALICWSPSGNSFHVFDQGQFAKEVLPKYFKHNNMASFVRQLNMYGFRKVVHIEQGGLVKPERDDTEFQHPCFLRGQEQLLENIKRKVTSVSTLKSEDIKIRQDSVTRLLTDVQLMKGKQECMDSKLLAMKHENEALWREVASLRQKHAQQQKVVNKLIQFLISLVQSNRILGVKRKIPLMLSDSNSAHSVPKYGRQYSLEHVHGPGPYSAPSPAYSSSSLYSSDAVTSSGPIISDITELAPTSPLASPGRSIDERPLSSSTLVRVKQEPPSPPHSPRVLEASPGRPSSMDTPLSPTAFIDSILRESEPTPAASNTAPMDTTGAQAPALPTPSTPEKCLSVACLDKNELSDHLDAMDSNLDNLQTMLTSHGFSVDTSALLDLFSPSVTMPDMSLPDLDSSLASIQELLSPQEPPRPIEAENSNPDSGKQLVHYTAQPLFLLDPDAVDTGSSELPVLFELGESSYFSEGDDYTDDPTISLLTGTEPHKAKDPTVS
Nature of the data set: decrease of HSF1-responsive luciferase luminescence – cell-based, NIH3T3, dose retest, confirmation (AID 2382).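 Also: NIH3T3 fibroblasts with HSF1-driven luciferase reporter stressed by proteasome inhibitor MG132; luminescence from HSF1-driven luciferase expression after 8 hours of MG132 stress.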 Format: functional.

The target in data set [3] is Protein Tat (Human immunodeficiency virus type 1 group M subtype B (isolate HXB2)(HIV-1), UniProt P04608). Type of data set: functional.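 Also: tat binding to TAR RNA read out by fluorescence polarization.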
Data set [4] is described as follows: blockers of HIV-1 envelope-mediated cell-cell fusion – cherry-pick, dose response (AID 652057). Type of data set: functional, cell-based.
Data set [5] can be described thus: HIV-1 AD8 envelope cell-cell fusion blockers – cherry-pick, dose response (AID 652062).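 Also: luciferase signal from cell-cell fusion driven by HIV-1 clade B AD8 Env; potency is for inhibitors of fusion seen as a drop in luminescence.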 Format: functional, cell-based.
Data set [6] in a line: viability loss in CEM21 cells – cell-based, CellTiter-Glo luminescence, cherry-picked, cytotoxicity control for viral fusion inhibitor project, dose response (AID 652042).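 Also: potency for signal decrease meaning cytotoxicity.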 Type of data set: functional. On the technique in general: Cellular ATP, detected with luciferase, serves as a proxy for viable cell number.
A short description of data set [7]: off-target signal loss in HeLa-CEM21 co-culture – HeLa F-luc CTL cells, cherry-picked, counter-screen for HIV-1 Env fusion inhibitor project, dose response (AID 652040).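 Also: potency for signal decrease marking cytotoxic or nonspecific inhibition.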 Format: functional, cell-based. On the technique in general: A counterscreen serves to expose hits that act by an unwanted route or on another target.
Data set [8] in a line: blockers of HIV-1 ZM109 envelope-driven cell-cell fusion – HeLa effector, CEM target cells, luciferase, cherry-pick, dose response (AID 652058).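 Also: luciferase signal from HIV-1 Env mediated cell-cell fusion of effector and target cells.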 Type of data set: functional, cell-based.
The target in data set [9] is T2, Microphthalmia-associated transcription factor (Homo sapiens, UniProt O75030).
T2 sequence (O75030 whole entry): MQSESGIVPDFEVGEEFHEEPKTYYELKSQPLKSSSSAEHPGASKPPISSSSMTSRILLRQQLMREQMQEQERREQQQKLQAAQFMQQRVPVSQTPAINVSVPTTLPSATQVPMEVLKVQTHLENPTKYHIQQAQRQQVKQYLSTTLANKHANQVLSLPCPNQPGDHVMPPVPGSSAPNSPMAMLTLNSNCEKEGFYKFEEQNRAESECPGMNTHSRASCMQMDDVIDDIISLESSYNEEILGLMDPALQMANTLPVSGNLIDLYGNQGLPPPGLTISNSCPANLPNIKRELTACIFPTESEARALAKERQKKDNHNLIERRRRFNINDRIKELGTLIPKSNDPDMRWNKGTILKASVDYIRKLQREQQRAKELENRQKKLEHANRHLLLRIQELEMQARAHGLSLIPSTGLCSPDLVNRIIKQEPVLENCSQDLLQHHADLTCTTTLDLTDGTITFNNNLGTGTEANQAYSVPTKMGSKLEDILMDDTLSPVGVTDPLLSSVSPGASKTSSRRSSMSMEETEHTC
The experiment in a line: reducers of TRPM1 reporter luminescence, concentration series – cell-based, SK-MEL-5, cherry-picked, set 3, MITF inhibitor project, dose response (AID 493073).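 Also: SK-MEL-5 melanoma cells with luciferase driven by the MITF target TRPM1 promoter.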 Type of data set: functional.

Data set [10] is described as follows: HIV-1 Vif–A3G interaction blockers – biochemical, TR-FRET, GST-Vif 1-94, biotin-A3G peptide, dose response retest, primary screen (AID 1117319).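 Also: TR-FRET signal of purified GST-Vif binding a biotinylated A3G peptide; inhibitors lower the FRET signal by blocking Vif and A3G binding.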 Format: functional. A general note: Time-resolved FRET reads energy transfer from a long-lived donor to a nearby acceptor.
In data set [11] the target is T3, Cytochrome P450 2C19 (Homo sapiens, UniProt P33261). Nature of the data set: qHTS Assay for Inhibitors and Substrates of Cytochrome P450 2C19. [Related pubchem assays: 410 ]. Type of data set: ADME. As to conditions: read-out: Potency.
The target in data set [12] is T4, RNA-binding protein pos-1 (Caenorhabditis elegans, UniProt G5EF15).
T4 sequence (G5EF15 whole entry): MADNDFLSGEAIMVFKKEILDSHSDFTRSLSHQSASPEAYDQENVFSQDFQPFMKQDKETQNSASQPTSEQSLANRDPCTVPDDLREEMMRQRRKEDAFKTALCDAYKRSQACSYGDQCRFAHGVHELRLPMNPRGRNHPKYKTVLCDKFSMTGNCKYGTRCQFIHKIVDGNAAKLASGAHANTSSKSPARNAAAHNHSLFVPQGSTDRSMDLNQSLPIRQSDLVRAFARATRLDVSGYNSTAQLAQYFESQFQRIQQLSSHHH
The experiment in a line: disruptors of C. elegans POS-1 RNA interaction – biochemical, fluorescence polarization, dose response (AID 1964).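 Also: purified POS-1 fused to maltose binding protein made in E. coli; potency of compounds blocking POS-1 binding to fluorescent RNA.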

For data set [13], the target named is Ephrin type-A receptor 4 (Mus musculus, UniProt Q03137). The experiment in a line: EphA4 ligand-binding antagonists – biochemical, colorimetric, mouse EphA4, primary screen (AID 689). Type of data set: functional.
Data set [14] deals with CHO. Nature of the data set: CHO cell viability loss, potency – luminescence, cytotoxicity control for TLR9-MyD88 binding inhibitor project, dose response (AID 588339).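 Also: CHO cells stably coexpressing TLR9 and MyD88 fusions from primary screen; compound exposure lasted 48 hours before viability readout.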 Type of data set: functional, cell-based, hamster. Conditions: Cricetulus griseus.
Data set [15] concerns the target Beta Lactamase (Pseudomonas aeruginosa, UniProt Q932Y6). The experiment in a line: BLA reporter interference, concentration series – BLA reporter cells, FRET fluorescence, artefact control for TLR9-MyD88 binding inhibitor project, dose response (AID 588341).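 Also: cell based assay in CHO-K1 cells stably expressing beta-lactamase.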 Format: cell-based.
The target of data set [16] is T5, Zinc finger protein mex-5 (Caenorhabditis elegans, UniProt Q9XUB2).
T5 sequence (Q9XUB2 whole entry): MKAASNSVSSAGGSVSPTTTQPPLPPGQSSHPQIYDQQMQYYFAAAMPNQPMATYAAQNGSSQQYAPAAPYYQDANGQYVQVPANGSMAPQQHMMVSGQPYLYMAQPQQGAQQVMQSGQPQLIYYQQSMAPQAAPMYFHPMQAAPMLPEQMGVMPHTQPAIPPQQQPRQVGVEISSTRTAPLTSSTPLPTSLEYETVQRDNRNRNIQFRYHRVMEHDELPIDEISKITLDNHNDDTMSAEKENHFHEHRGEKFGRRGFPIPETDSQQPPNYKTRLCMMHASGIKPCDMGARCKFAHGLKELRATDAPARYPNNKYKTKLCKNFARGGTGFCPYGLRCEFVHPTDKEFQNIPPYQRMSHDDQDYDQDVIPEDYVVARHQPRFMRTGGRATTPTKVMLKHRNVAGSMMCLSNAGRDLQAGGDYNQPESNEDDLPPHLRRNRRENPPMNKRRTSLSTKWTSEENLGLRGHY
The experiment in a line: potency of MEX-5 RNA-binding blockers – biochemical, C. elegans, fluorescence polarization, dose response (AID 1960).

Data set [17] deals with Aryl hydrocarbon receptor (Homo sapiens, UniProt P35869). The experiment in a line: Luminescence-based cell-based high throughput dose response assay for activators of the Aryl Hydrocarbon Receptor (AHR). [Related pubchem assays: 2796 (Primary screen (AHR activators in singlicate)), 2845 (Confirmation screen (AHR activators in triplicate)), 434939 (Counterscreen (PXR activators in triplicate)), 2804 (Summary (AHR activators))]. Type of data set: ADME.

Data set [18] concerns the target Cytochrome P450 2C9 (Homo sapiens, UniProt P11712).
Data set [19] concerns the target T3, Cytochrome P450 2C19. Nature of the data set: Cytochrome panel assay with activity outcomes. Panel member name: p450-cyp2c19 Compounds with AC50 equal or less than 10 uM are considered active. Type of data set: functional. Conditions: read-out: AC50.

T3 sequence (P33261 whole entry): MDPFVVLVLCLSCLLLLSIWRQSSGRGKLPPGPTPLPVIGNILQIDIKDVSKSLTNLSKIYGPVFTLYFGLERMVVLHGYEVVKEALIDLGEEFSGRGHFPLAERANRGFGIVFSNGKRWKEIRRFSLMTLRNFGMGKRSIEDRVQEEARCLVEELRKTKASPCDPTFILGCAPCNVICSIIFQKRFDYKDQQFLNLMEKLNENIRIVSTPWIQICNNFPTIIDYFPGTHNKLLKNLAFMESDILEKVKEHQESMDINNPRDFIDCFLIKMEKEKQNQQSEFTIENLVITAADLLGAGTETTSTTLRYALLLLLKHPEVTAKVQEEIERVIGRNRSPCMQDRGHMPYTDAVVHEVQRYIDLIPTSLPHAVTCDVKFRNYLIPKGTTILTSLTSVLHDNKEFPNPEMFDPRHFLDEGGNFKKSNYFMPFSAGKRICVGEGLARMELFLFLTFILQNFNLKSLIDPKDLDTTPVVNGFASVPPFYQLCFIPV
Chain of Ephrin type-A receptor 4 (Q03137 whole entry, the tested form may be a part): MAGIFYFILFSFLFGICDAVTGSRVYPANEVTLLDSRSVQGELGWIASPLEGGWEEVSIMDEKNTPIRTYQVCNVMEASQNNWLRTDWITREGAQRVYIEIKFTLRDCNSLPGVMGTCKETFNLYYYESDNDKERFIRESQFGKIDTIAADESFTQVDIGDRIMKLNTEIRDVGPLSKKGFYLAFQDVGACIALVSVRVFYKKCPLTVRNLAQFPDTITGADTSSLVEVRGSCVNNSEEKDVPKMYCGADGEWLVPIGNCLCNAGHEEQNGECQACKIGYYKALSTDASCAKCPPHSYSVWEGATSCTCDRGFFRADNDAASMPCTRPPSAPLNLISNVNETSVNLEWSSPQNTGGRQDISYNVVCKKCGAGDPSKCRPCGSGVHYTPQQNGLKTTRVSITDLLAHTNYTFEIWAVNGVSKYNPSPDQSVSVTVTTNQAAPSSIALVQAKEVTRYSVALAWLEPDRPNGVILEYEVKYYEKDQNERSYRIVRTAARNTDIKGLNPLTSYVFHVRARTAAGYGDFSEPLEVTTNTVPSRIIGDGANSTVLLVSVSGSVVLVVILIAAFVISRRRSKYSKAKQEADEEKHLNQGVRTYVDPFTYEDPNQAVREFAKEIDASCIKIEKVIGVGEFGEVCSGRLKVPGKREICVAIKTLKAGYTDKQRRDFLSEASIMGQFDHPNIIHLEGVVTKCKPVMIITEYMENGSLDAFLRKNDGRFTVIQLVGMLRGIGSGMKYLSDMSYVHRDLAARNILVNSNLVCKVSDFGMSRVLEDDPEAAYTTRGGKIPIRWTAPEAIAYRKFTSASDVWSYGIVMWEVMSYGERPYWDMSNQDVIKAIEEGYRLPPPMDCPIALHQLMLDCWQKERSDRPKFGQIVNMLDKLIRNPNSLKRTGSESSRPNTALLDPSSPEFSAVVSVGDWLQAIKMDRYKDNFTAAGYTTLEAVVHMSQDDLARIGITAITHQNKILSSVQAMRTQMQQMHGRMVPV
Chain of Aryl hydrocarbon receptor (P35869 whole entry): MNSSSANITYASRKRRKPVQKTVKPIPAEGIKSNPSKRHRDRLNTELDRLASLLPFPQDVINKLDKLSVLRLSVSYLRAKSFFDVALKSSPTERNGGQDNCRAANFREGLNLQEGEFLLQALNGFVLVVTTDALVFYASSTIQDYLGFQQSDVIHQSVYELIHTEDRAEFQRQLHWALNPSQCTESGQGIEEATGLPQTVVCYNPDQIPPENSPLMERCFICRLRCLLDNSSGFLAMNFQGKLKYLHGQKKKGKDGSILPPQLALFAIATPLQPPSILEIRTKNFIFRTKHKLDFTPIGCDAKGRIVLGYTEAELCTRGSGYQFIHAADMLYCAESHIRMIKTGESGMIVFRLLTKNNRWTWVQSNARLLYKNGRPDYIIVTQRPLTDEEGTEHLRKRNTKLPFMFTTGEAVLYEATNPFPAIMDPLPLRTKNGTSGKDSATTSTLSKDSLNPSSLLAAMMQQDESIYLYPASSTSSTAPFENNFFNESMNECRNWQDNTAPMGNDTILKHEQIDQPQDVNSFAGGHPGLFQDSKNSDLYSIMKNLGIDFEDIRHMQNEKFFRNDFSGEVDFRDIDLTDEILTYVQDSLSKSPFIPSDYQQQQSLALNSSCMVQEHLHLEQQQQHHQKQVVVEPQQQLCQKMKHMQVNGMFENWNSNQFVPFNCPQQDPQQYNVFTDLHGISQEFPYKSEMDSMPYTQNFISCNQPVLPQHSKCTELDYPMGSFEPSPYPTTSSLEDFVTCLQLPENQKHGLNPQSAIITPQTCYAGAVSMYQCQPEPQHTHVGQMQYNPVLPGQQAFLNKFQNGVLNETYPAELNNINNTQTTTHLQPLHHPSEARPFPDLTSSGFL
Chain of Protein Tat (P04608 whole entry, the tested form may be a part): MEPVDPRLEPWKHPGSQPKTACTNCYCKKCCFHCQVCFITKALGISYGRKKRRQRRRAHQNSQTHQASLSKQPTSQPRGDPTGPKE
Chain of Beta Lactamase (Q932Y6 whole entry): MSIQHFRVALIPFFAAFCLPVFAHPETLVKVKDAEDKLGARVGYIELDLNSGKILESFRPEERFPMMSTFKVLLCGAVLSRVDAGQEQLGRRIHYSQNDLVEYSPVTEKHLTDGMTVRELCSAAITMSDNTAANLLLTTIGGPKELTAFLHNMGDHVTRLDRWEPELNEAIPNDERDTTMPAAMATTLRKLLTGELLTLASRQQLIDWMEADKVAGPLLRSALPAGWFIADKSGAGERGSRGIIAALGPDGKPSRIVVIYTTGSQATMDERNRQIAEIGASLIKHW
Chain of Cytochrome P450 2C9 (P11712 whole entry): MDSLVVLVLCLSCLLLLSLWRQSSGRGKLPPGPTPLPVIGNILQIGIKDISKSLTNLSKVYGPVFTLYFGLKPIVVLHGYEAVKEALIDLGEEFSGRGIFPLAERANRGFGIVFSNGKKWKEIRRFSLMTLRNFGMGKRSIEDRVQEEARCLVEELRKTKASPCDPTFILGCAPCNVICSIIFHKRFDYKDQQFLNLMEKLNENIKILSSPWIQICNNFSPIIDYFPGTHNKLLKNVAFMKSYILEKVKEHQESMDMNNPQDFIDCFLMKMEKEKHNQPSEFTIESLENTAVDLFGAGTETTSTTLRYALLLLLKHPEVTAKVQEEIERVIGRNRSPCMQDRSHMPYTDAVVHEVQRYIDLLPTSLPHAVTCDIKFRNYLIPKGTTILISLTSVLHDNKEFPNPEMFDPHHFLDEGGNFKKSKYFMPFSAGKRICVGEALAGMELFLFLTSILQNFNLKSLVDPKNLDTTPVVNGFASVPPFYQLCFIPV

A word on the CC50: it is the concentration giving 50% cytotoxicity. One may read the EC50 as the midpoint of the concentration-response curve. What is called IC50 is the concentration at which inhibition is half-maximal. With `CN(c1ccc2nc3ccccc3c(=O)n2n1)C1CCCCC1`, the CC50 in data set [1] is 36.6 µM (active). For the same compound, the EC50 in [2] was < 0.16 µM (active). Also, the IC50 in [3] is > 100 µM (active). Further, the AC50 in data set [4] was 2.13 µM (active); in [5], 6.5 µM (active); in data set [6], 26.9 µM (active); in data set [7], 6.41 µM (active); in data set [8], 31.1 µM (active); in [9], 1.29 µM (active).

As for `Cc1cc(C)cc(NC2=CC(=O)CC(c3ccco3)C2)c1` (centres undefined), the CC50 in [1] is 25.1 µM (active). Besides, the IC50 in [10] is > 60.7 µM (active).

In the case of `COc1cc2c(cc1OC)-c1c(O)c(OC)cc3c1[C@@H](C2)N(C)CC3`, in [11], the AC50 was 25.1 µM (inconclusive).

In the case of `COc1cc(C(=O)Nc2cccc(-c3nc4ncccc4o3)c2C)cc(OC)c1OC`, the IC50 in [10] is > 100 µM (active).

For the compound `CN(C)c1ccc(/C=C/C(=O)c2cccc(Br)c2)cc1`, the EC50 was > 300 µM (not active) in [12] and > 300 µM (inconclusive) in data set [16]. Besides, the IC50 in [13] was > 100 µM (not active); in data set [14], > 49.7 µM (inactive); in data set [15] it was 5.6 µM (active).

Take `O=S(=O)(NNc1ncc(C(F)(F)F)cc1Cl)c1ccc(F)cc1F`: in data set [17], the EC50 was 3.38 µM (active).

Consider `Cc1ccc(CNC(=O)CN2CCC(C(N)=O)CC2)cc1`, for which the IC50 in [13] was > 100 µM (not active).

Regarding `Cc1c(-c2cc[nH]n2)cc(NC(=O)c2ccc(Cl)cc2)c(=O)n1N`, the EC50 in data set [17] was 1.17 µM (active).

Turning to `O=C(C1CCCCC1)N1CC(=O)N2CCc3ccccc3[C@@H]2C1` [PRAZIQUANTEL, (R)-], the AC50 result was “inconclusive” in data set [18], 25.1 µM (inconclusive) in [11] and 5.01 µM (inconclusive) in data set [19].
